These molecules were tested on zebrafish embryos (assay: Zebrafish embryo phenotypic assay (ZF)). Conditions: wild-type embryonic zebrafish, dosed 5 hpf.
Format: in vivo
Method: All zebrafish experiments were approved by Vanderbilt University Institutional Animal Care and Use Committee. Wild-type zebrafish of AB strain were maintained using standard protocols. Chemical screen for small molecules was performed as previously described. Briefly, pairs of zebrafish were mated, and fertilized eggs were arrayed in 96-well microtiter plates (5 embryos/well) containing 250 μl E3 water. At ˜4-hpf, small molecule library from Vanderbilt High Throughput Screening Facility was added to each well to the final concentration of 5 μM. Embryos were incubated at 28.5° C. until 24 and 48-hpf, when they were examined for gross morphologic changes indicative of disruption in embryonic patterning. A total of ˜30,000 compounds were screened.
ZF refers to wild-type embryonic zebrafish phenotypic assay involving dosing n=˜10 embryos in E3 egg water with compound from either a stock of 1 mM or 10 mM in DMSO at 5 hours post-fertilization and observing at 24, 48, and 72 hours post-fertilization.

Row | Structure (SMILES) | ZF Phenotype EC100
1 | O=C(CSc1nc2sc3c(c2c(=O)n1-c1ccccn1)CCCC3)c1cccs1 [JEH-1-034] | 1 µM
2 | O=C(CSc1nc2sc3c(c2c(=O)n1-c1ccc(Br)cc1)CCCC3)c1cccs1 [JEH-1-050-1] | >50 µM
3 | O=C(CSc1nc2sc3c(c2c(=O)n1-c1ccc(Cl)cn1)CCCC3)c1cccs1 [JEH-1-050-2] | 25 µM
4 | O=C(CSc1nc2sccc2c(=O)n1CC1CC1)c1cccs1 [JEH-1-065-1] | 5 µM
5 | O=C(CSc1nc2sccc2c(=O)n1C1CC1)c1cccs1 [JEH-1-065-2] | 10 µM
6 | O=C(O)c1ccc(-n2c(SCC(=O)c3cccs3)nc3sc4c(c3c2=O)CCCC4)cc1 [JEH-1-066] | >50 µM
7 | O=C(CSc1nc2sc3c(c2c(=O)n1C1CC1)CCNC3)c1cccs1 [JEH-1-097] | >50 µM
8 | O=C(CSc1nc2sccc2c(=O)n1C1CC1)N1CCOCC1 [JEH-1-103] | >50 µM
9 | C=C(C)Cn1c(SCC(=O)N2CCOCC2)nc2sccc2c1=O [JEH-1-104] | >50 µM
10 | O=C(CSc1nc2sc3c(c2c(=O)n1C1CC1)CCN(C(=O)C1CC1)C3)c1cccs1 [JEH-1-124] | >50 µM
11 | CSc1nc2sc3c(c2c(=O)n1C1CC1)CCCC3 [JEH-1-127] | >50 µM
12 | CSc1nc2sccc2c(=O)n1C1CC1 [JEH-1-131-2] | >50 µM
13 | O=C(CSc1nc2ccccc2c(=O)n1C1CC1)c1cccs1 [JEH-1-134] | 1 µM
14 | O=C(CSc1nc2ncccc2c(=O)n1C1CC1)c1cccs1 [JEH-1-137] | >50 µM
15 | O=C(CSc1nc2sc3c(c2c(=O)n1C1CC1)CCOC3)c1cccs1 [JEH-1-161-1] | 0.5 µM
16 | O=C(CSc1nc2sc3c(c2c(=O)n1C1CC1)CCSC3)c1cccs1 [JEH-1-161-2] | 1 µM
17 | O=c1c2ccsc2nc(SCc2ccccc2)n1C1CC1 [JEH-1-190-1] | 50 µM
18 | O=c1c2ccsc2nc(SCc2ccc(Br)cc2)n1C1CC1 [JEH-1-190-2] | 50 µM
19 | CC(C1CC1)n1c(SCC(=O)c2ccccc2)nc2sccc2c1=O (stereo not shown) [JEH-2-003] | 30 µM
20 | O=C(CSc1nc2sccc2c(=O)n1CC1CC1)c1ccccc1 [JEH-2-007-1] | 10 µM
21 | COc1ccc(-c2cc3c(=O)n(C4CC4)c(SCC(=O)c4ccccc4)nc3s2)cc1 [JEH-2-018] | >50 µM
22 | COC(=O)c1cc(-c2ccc(F)cc2)sc1NC(=S)NC1CC1 [JEH-2-026] | 25 µM

Row | Structure (SMILES) | ZF Phenotype EC100
23 | O=C(CSc1nc2sc(-c3ccc(F)cc3)cc2c(=O)n1C1CC1)c1ccccc1 [JEH-2-034] | >50 µM
24 | CC(C1CC1)n1c(SCC(=O)Nc2ccccn2)nc2sccc2c1=O (stereo not shown) [JEH-2-041-1] | 20 µM
25 | CC(C1CC1)n1c(SCC(=O)Nc2ccccc2O)nc2sccc2c1=O (stereo not shown) [JEH-2-041-2] | 30 µM
26 | C#CCNC(=O)CSc1nc2sc3c(c2c(=O)n1CC(=C)C)CCCC3 [JEH-2-060] | 30 µM
27 | C=C(C)Cn1c(SCC(=O)c2cc3ccccc3s2)nc2sc3c(c2c1=O)CCCC3 [KK-14-093-1] | >50 µM
28 | C=C(C)Cn1c(SCC(=O)c2cc3ccccc3o2)nc2sc3c(c2c1=O)CCCC3 [KK-14-094-1] | >50 µM
29 | C=C(C)Cn1c(SCC(=O)c2ccc(Cl)s2)nc2sc3c(c2c1=O)CCCC3 [KK-14-094-2] | >50 µM
30 | C=C(C)Cn1c(SCc2nc3ccc(Cl)cc3o2)nc2sc3c(c2c1=O)CCCC3 [KK-14-094-3] | >50 µM
31 | C=C(C)Cn1c(SCc2nc3ccc(C(=O)O)cc3[nH]2)nc2sc3c(c2c1=O)CCCC3 [KK-14-096-1] | >50 µM
32 | C=C(C)Cn1c(SCc2nc3cc(OC)ccc3o2)nc2sc3c(c2c1=O)CCCC3 [KK-14-096-2] | >50 µM
33 | C=C(C)Cn1c(SCc2nc3ccc(S(=O)(=O)Nc4ccccc4OC)cc3[nH]2)nc2sc3c(c2c1=O)CCCC3 [KK-093-2] | >50 µM
34 | O=C(CSc1nc2sc3c(c2c(=O)n1C1CC1)CCN(C(=O)c1ccc(Cl)cc1)C3)c1ccccc1 [KYK-1-54] | >50 µM
35 | O=C(CSc1nc2sc3c(c2c(=O)n1C1CC1)CCN(S(=O)(=O)c1ccc(Cl)cc1)C3)c1ccccc1 [KYK-1-58] | >50 µM
36 | O=C(CSc1nc2sc3c(c2c(=O)n1C1CC1)CCN(S(=O)(=O)c1ccc([N+](=O)[O-])cc1)C3)c1ccccc1 [KYK-1-61] | >50 µM
37 | Cn1cnc(S(=O)(=O)N2CCc3c(sc4nc(SCC(=O)c5ccccc5)n(C5CC5)c(=O)c34)C2)c1 [KYK-1-66] | >50 µM
38 | COC(=O)c1c(NC(=S)SC)sc2c1CCNC2 [KYK-1-87] | >50 µM
39 | O=C(CSc1nc2sc3c(c2c(=O)n1C1CC1)CCN(CCCc1ccccc1)C3)c1ccccc1 [KYK-1-88] | >50 µM
40 | COC(=O)c1c(NC(=S)NC2CC2)sc2c1CCNC2 [KYK-1-96] | >50 µM
41 | O=c1c2c3c(sc2[nH]c(=S)n1C1CC1)CNCC3 [KYK-1-99] | >50 µM
42 | O=C(CSc1nc2sc3c(c2c(=O)n1C1CC1)CCN(Cc1ccco1)C3)c1ccccc1 [KYK-1-103-1] | >50 µM
43 | CCCCN1CCc2c(sc3nc(SCC(=O)c4ccccc4)n(C4CC4)c(=O)c23)C1 [KYK-1-103-2] | >50 µM

The molecules below were run on Hedgehog signaling (TM3-Gli-Luc) (assay: TM3-Gli-Luc luciferase reporter assay stimulated with 20 nM SAG). Conditions: not given.
Format: cell-based
Method: TM3-Gli-Luc cells were maintained on sterile 0.1% gelatin (from porcine skin, Type A, prepared in MilliQ water, autoclaved, then sterile-filtered) in 1:1 Dulbecco's Modified Eagle Medium (DMEM)/F12 supplemented with 5% horse serum, 2.5% fetal bovine serum (FBS), and 15 mM HEPES, hereafter referred to as TM3 Culture Medium. For small molecule evaluation, TM3-Gli-Luc cells were assayed on 0.1% gelatin in DMEM/F12 supplemented with 2.5% FBS and 15 mM HEPES, hereafter referred to as TM3Luc Medium. Sufu^−/− cells were maintained in DMEM supplemented with 4.5 g/L D-glucose, L-glutamine, 25 mM HEPES, and 10% FBS, hereafter referred to as D10 FBS. For small molecule evaluation, Sufu^−/− cells were assayed in DMEM supplemented with 4.5 g/L D-glucose, L-glutamine, 25 mM HEPES, and 0.5% FBS, hereafter referred to as D0.5 FBS. All cells were cultured at 37° C. with a 5% CO2 atmosphere.
On the day of cell plating, 96-well plates were coated with 50 μL/well of sterile 0.1% gelatin for 5 minutes then aspirated and replaced with 50 μL/well of TM3 Culture Medium. TM3-Gli-Luc cells were seeded at a density of 5,000 cells/well in TM3 Culture Medium and incubated for 24 hours. A master mix of 20 nM SAG in TM3Luc Medium was prepared, and small molecule solutions were prepared by adding the desired amount of compound from 10 mM DMSO stock to TM3Luc Medium containing 20 nM SAG. Negative control was prepared by adding an equi-volume amount of DMSO as compared to small molecule treated conditions to TM3Luc Medium not containing SAG. Cell plating medium was aspirated and replaced with 100 μL/well of prepared small molecule-containing media, and plates were incubated for 48 hours before proceeding to luciferase activity and cell viability reading.
TM3Luc Medium from compound treated plates was aspirated and replaced with 82 μL/well of Glo Lysis Buffer (Promega, Madison, Wis., USA), and plates were shaken at 300 rpm and room temperature for 12 minutes. Lysate was split between two white 96-well plates, 45 μL/well and 25 μL/well for luciferase reading and cell viability respectively. For luciferase activity monitoring, 45 μL/well of Steady Glo (Promega, Madison, Wis., USA) was added to 45 μL/well of cell lysate, incubated at room temperature for 5 minutes, then luminescence was measured on a Turner Biosystems Modulus Microplate Reader (Sunnyvale, Calif., USA) with an integration time of 0.5 seconds. For cell viability measurement, 25 μL/well of Cell Titer Glo (Promega, Madison, Wis., USA) (prepared by 1:10 dilution with Glo Lysis Buffer) was added to 25 μL/well of cell lysate, incubated at room temperature for 5 minutes, then luminescence was measured as above.
Luciferase activity data (Steady Glo) was divided by corresponding cell viability data (Cell Titer Glo) to arrive at a live cell number-normalized luciferase activity reading. The average of negative control data (DMSO treated) was subtracted from all wells, and percent activity was calculated by dividing all wells by the positive control (SAG treated) average. […] At least two independent assays tested on separate days were averaged to provide EC50±standard error of the mean.

Row | Structure (SMILES) | TM3 G8 Luciferase % Inh., 2 pM
44 | C=C(C)Cn1c(SCC(=O)N2CCCC[C@H]2C)nc2sc3c(c2c1=O)CCCC3 [JEH-4-136] | 44.3%

Same assay, conditions: 0.5 pM as printed

Row | Structure (SMILES) | TM3 G8 Luciferase % Inh., 0.5 pM
45 | C=C(C)Cn1c(SCC(=O)N2CCCC[C@H]2C)nc2sc3c(c2c1=O)CCCC3 [JEH-4-136] | 3.7%

Same assay, conditions: 20 nM SAG

Row | Structure (SMILES) | Hh inhibitory activity / potency in words
46 | C=C(C)Cn1c(SCC(=O)c2cccs2)nccc1=O [Formula 12] | complete loss of Hh inhibitory activity
47 | C=C(C)Cn1c(SCC(=O)c2cccs2)nccc1=O [Formula 14a] | complete loss of activity
48 | CC(O)(CSc1nc2sccc2c(=O)n1C1CC1)c1ccccc1 (stereo not shown) [Formula 20b] | only modest potency reductions
49 | O=C(COc1nc2sccc2c(=O)n1C1CC1)c1ccccc1 [Formula 22a] | complete loss of inhibition
50 | O=C(CNc1nc2sccc2c(=O)n1C1CC1)c1ccccc1 [Formula 22b] | complete loss of inhibition

Same assay, conditions: 20 nM SAG; read-out: EC50

Row | Structure (SMILES) | EC50
51 | C=C(C)Cn1c(SCC(=O)c2cccs2)nc2sc3c(c2c1=O)CCCC3 [EGM1] | 1.34 µM

Same assay, conditions: TM3-Gli-Luc reporter line stimulated with 20 nM SAG; mean ± SEM; Table 13; read-out: TM3-Gli-Luc EC50

Row | Structure (SMILES) | EC50
52 | C=C(C)Cn1c(SCC(=O)c2cccs2)nccc1=O [Formula 12] | > 20 µM
53 | C=C(C)Cn1c(SCC(=O)c2cccs2)nccc1=O [Formula 14a] | > 20 µM

Same assay, conditions: Table 9A; read-out: TM3 G8 Luciferase EC 50

Row | Structure (SMILES) | EC50
54 | O=C(CSc1nc2sccc2c(=O)n1C1CC1)c1cccs1 [JEH-1-065-2] | 1.09 µM
55 | O=C(CSc1nc2ccccc2c(=O)n1C1CC1)c1cccs1 [JEH-1-134] | 0.713 µM
56 | O=C(CSc1nc2ncccc2c(=O)n1C1CC1)c1cccs1 [JEH-1-137] | 3.32 µM
57 | O=C(CSc1nc2sc3c(c2c(=O)n1C1CC1)CCOC3)c1cccs1 [JEH-1-161-1] | 19.1 µM
58 | O=C(CSc1nc2sc3c(c2c(=O)n1C1CC1)CCSC3)c1cccs1 [JEH-1-161-2] | 9.55 µM
59 | O=C(CSc1nc2sc3ccccc3c2c(=O)n1C1CC1)c1ccccc1 [JEH-4-055-1] | 16.6 µM
60 | O=C(CSc1nc2sc3ccccc3c2c(=O)n1C1CC1)N1CCCCC1 [JEH-4-055-2] | 6.03 µM
61 | C=C(C)Cn1c(SCCc2cccs2)nc2sc3c(c2c1=O)CCCC3 [JEH-4-135] | 5.5 µM
62 | C=C(C)Cn1c(SCC(=O)c2cccs2)nc2sc3c(c2c1=O)CCSC3 [JEH-4-143] | 2.51 µM
63 | C=C(C)Cn1c(NCC(=O)c2cccs2)nc2sc3c(c2c1=O)CCCC3 [JEH-5-052] | 25 µM
64 | Cc1sc2nc(SCC(=O)c3ccccc3)n(C3CC3)c(=O)c2c1C [JEH-5-087] | 31.6 µM
